From ChEMBL document CHEMBL1143878, “The design and synthesis of novel alpha-ketoamide-based p38 MAP kinase inhibitors” (Bioorg Med Chem Lett, 2008) come the findings set out here.

One data set relates to THP-1. The data set can be described thus: Inhibition of LPS-induced TNFalpha production in human THP1 cells. It counts as functional, cell-based.
In data set [1] the target is T1, Mitogen-activated protein kinase 14 (Homo sapiens, UniProt Q16539). The data set can be described thus: Inhibition of human p38-alpha kinase.
Data set [2] is described as follows: Volume of distribution at steady state in rat at 10 mg/kg, iv. Format: ADME, organism-based. Set-up: dose 10 mg/kg, route intravenous. Particulars: in vivo, read-out: Vdss.
Data set [3] is described as follows: Half life in rat at 30 mg/kg, po. It counts as ADME, organism-based. Set-up: dose 30 mg/kg, route oral. The settings on record: in vivo.
The nature of data set [4]: Cmax in rat at 30 mg/kg, po. Format: ADME, organism-based. Set-up: dose 30 mg/kg, route oral. Particulars: in vivo.
In data set [5] the target is T1, Mitogen-activated protein kinase 14. Description: Inhibition of human p38-alpha kinase phosphorylation.
Data set [6] can be described thus: Clearance in rat at 10 mg/kg, iv. Format: ADME, organism-based. The arrangement: dose 10 mg/kg, route intravenous. Particulars: in vivo.
Data set [7] can be described thus: AUC in rat at 30 mg/kg, po. The settings on record: plasma. It counts as ADME, organism-based. The arrangement: dose 30 mg/kg, route oral.
The nature of data set [8]: Tmax in rat at 30 mg/kg, po. The settings on record: in vivo. Set-up: dose 30 mg/kg, route oral. It counts as ADME, organism-based.
A short description of data set [9]: Bioavailability in rat at 30 mg/kg, po. Format: ADME, organism-based. The settings on record: in vivo.

The pIC50 is the IC50 on a negative log10 scale, so that one unit is a factor of ten. Higher therefore signals a small IC50. Broadly, the half-life is the time in which the quantity being followed falls by half. The term Cmax denotes the maximum level reached in the sampled fluid or tissue. What is called clearance is the rate of elimination divided by the concentration. One may read the AUC as concentration integrated over time. A low value points to low exposure. In general, Tmax refers to the time from dosing to the highest level. As usually defined, the bioavailability is the share of a dose that reaches the circulation, judged against a reference dose that is usually intravenous. The low end stands for little systemic uptake, the high end for much systemic uptake.

The structures appear in SMILES notation. pIC50: −log10 of the molar value.

T1 sequence (Q16539 whole entry): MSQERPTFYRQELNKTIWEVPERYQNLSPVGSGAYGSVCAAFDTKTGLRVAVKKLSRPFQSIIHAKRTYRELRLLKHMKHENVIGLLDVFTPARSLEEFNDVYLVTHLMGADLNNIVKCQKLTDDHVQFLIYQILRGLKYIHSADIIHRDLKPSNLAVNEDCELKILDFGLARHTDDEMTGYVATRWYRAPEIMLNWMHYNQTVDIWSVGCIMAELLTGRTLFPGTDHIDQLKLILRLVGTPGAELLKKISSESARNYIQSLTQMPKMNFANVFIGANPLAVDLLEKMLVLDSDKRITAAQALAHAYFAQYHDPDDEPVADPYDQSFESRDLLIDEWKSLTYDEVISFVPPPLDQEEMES

In turn, `Cc1cccc(-n2nc(C(C)(C)C)cc2NC(=O)C(=O)c2ccc(OCCN3CCOCC3)c3ccccc23)c1` showed a negative logarithm of the IC50 (pIC50) in the data set on THP-1 of 6.47. Turning to `Cc1ccc(-n2nc(C(C)(C)C)cc2NC(=O)/C(=N\O)c2ccc(OCCN3CCOCC3)c3ccccc23)cc1`, the negative logarithm of the IC50 (pIC50) in data set [1] is 7.64; with THP-1, 7.64; in data set [5], 6.82. Also, the Vd in data set [2] is 1.9 L/kg. Further, the half-life in data set [3] was 1.4 h. The peak level in [4] (Cmax) was 4500 ng/mL. The molecule further showed a clearance in data set [6] of 15 mL/min/kg. The same molecule had an exposure (AUC) in data set [7] of 36000 ng·h/mL. In addition, in data set [8], the Tmax came out at 1 h. The molecule also registered a bioavailability in [9] of 100%. In turn, `Cc1ccc(-n2nc(C(C)(C)C)cc2NC(=O)C(=O)c2ccc(OCCN3CCOCC3)c3ccc(Cl)cc23)cc1` showed a negative-log IC50 (pIC50) in the data set on THP-1 of 5.59. The molecule `CC(C)(C)c1cc(NC(=O)C(=O)c2ccc(OCCN3CCOCC3)c3ccccc23)n(-c2cccc(F)c2)n1` showed a pIC50 with THP-1 of 6.36.

For `Cc1ccc(-n2nc(C(C)(C)C)cc2NC(=O)C(O)c2ccc(OCCN3CCOCC3)c3ccccc23)cc1` (stereo not given), the negative logarithm of the IC50 (pIC50) in the data set with THP-1 is 6.01. Molecule `CC(C)(C)c1cc(NC(=O)C(=O)c2ccc(OCCN3CCOCC3)c3ccccc23)n(-c2ccccc2)n1` had a negative-log IC50 (pIC50) in the data set on THP-1 of 5.68. Molecule `CO/N=C(\C(=O)Nc1cc(C(C)(C)C)nn1-c1ccc(C)cc1)c1ccc(OCCN2CCOCC2)c2ccccc12` gave a pIC50 with THP-1 of 5.82. `CC(C)(C)c1cc(NC(=O)C(=O)c2ccc(OCCN3CCOCC3)c3ccccc23)[nH]n1` gave a negative-log IC50 (pIC50) in the data set on THP-1 of 5.82. Regarding `Cc1ccc(-n2nc(C(C)(C)C)cc2NC(=O)C(=O)c2ccc(OCCN3CCOCC3)c3ccccc23)cc1C`, in the data set on THP-1, the negative logarithm of the IC50 (pIC50) was 6.35.

`Cc1ccc(-n2nc(C(C)(C)C)cc2NC(=O)C(=O)c2ccc(OCCN3CCOCC3)c3ccccc23)cc1`: the results for the pIC50 (in data set [1]; in the data set with THP-1; in data set [5]) were 6.49, 6.36 and 6.51, respectively.

In the case of `Cc1ccc(-n2nc(C(C)(C)C)cc2NC(=O)Cc2ccc(OCCN3CCOCC3)c3ccccc23)cc1`, in the data set with THP-1, the negative-log IC50 (pIC50) was 5.85.

Molecule `Cc1ccc(-n2nc(C(C)(C)C)cc2NC(=O)c2n[nH]c3ccccc23)cc1` showed a pIC50 in the data set on THP-1 of 5.54. As to `Cn1nc(C(C)(C)C)cc1NC(=O)C(=O)c1ccc(OCCN2CCOCC2)c2ccccc12`, the pIC50 in data set [1] is 6.82; in data set [5], 6.52. In the data set on THP-1, `Cc1ccc(-n2nc(C(C)(C)C)cc2NC(=O)C(=O)c2ccc(OCCN3CCOCC3)c3ccccc23)cc1F` had a pIC50 of 6.66. `Cc1ccccc1-n1nc(C(C)(C)C)cc1NC(=O)C(=O)c1ccc(OCCN2CCOCC2)c2ccccc12` had a negative-log IC50 (pIC50) in the data set on THP-1 of 5.82. Take `Cc1ccc(-n2nc(C(C)(C)C)cc2NC(=O)Nc2ccc(OCCN3CCOCC3)c3ccccc23)cc1` [DORAMAPIMOD]: the negative logarithm of the IC50 (pIC50) in the data set on THP-1 was 7.89. As for `O=c1ncn2nc(Sc3ccc(F)cc3F)ccc2c1-c1c(Cl)cccc1Cl` [NEFLAMAPIMOD], in the data set on THP-1, the negative logarithm of the IC50 (pIC50) was 7.41.

Molecule `C[S+]([O-])c1ccc(-c2nc(-c3ccc(F)cc3)c(-c3ccncc3)[nH]2)cc1` (stereo not given) [SB-203580] showed a pIC50 with THP-1 of 7.80.
